Laboratory results from US11524968B2, “Heterocyclic compound as a protein kinase inhibitor” (HK inno.N Corporation, priority 2017, dated 2022).

Target: JAK1 (Homo sapiens (Human), UniProt P23458)
Experiment: Analysis of JAK1 activity inhibition ability (ADP-Glo Kinase Assay)
Assay type: biochemical
Details: JAK1 enzyme, ADP-Glo luminescence, ATP 250 uM, IRS-itide substrate, 30° C. 40 minutes; read-out: IC50
Procedure, shortened: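 JAK1 enzyme, IRS-itide substrate (40 ng/mL) and 250 uM ATP, both as prepared in kinase buffer (Tris-HCl pH 7.5, MgCl2, BSA, DTT), reacted with compound 40 min at 30 °C. ADP formed was detected by ADP-Glo luminescence; IC50 is the concentration giving 50% inhibition versus control.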

JAK1, sequence (P23458 whole entry): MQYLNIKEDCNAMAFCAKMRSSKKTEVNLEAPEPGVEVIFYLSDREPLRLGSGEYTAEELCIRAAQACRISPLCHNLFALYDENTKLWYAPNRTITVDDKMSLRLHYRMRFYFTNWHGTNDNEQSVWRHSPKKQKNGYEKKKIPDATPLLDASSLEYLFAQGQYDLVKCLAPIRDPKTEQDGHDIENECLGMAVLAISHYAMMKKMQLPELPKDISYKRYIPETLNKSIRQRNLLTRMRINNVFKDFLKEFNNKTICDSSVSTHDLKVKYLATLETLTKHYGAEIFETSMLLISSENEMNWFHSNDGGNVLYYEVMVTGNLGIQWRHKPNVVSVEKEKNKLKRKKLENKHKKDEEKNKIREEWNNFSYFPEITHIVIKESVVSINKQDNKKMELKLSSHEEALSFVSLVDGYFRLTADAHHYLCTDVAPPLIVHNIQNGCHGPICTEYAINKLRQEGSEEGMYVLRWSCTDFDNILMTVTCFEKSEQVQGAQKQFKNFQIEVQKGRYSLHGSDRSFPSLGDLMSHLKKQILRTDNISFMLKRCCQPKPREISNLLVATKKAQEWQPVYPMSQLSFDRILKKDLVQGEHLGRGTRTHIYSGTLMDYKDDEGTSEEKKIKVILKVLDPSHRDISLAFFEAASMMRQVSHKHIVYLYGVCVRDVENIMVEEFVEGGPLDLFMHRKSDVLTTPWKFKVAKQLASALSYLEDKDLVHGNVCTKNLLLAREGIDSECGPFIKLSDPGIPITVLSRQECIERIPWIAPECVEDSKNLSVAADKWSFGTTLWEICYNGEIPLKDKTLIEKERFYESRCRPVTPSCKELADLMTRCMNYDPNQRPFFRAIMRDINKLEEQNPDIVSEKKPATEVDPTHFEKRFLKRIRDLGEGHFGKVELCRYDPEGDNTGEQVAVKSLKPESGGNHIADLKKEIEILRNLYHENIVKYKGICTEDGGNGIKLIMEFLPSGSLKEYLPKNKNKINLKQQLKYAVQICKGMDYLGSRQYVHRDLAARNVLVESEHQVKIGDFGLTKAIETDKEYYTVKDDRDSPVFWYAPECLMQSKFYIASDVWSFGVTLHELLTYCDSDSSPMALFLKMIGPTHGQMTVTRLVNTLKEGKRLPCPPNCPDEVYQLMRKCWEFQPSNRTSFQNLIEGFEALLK

IC50 [nM]	SMILES
< 20	O=C(Nc1cc(C2=CCN(C(=O)C3CC3F)CC2)c2cc[nH]c2n1)C1CC1 (centres unmarked) [Example 274, N-(4-(1-(2-fluorocyclopropane-1-carbonyl)-1,2,3,6-tetrahydropyridin-4-yl)-1H-pyrrolo[2,3-b]pyridin-6-yl)cyclopropanecarboxamide]
< 20	N#CCC(=O)N1CC=C(c2cc(NC(=O)C3CC3)[n+]([O-])c3[nH]ccc23)CC1 [Example 275, 4-(1-(2-cyanoacetyl)-1,2,3,6-tetrahydropyridin-4-yl)-6-(cyclopropanecarboxamido)-1H-pyrrolo[2,3-b]pyridine 7-oxide]
20 to 200	O=C(Nc1cc(C2=CCN(C(=O)Cc3ccc(F)c(F)c3)CC2)c2cc[nH]c2n1)C1CC1 [Example 276, N-(4-(1-(2-(3,4-difluorophenyl)acetyl)-1,2,3,6-tetrahydropyridin-4-yl)-1H-pyrrolo[2,3-b]pyridin-6-yl)cyclopropanecarboxamide]
> 200	O=C(Nc1cc(C2=CCN(C(=O)c3ccncc3)CC2)c2cc[nH]c2n1)C1CC1 [Example 277, N-(4-(1-isonicotinoyl-1,2,3,6-tetrahydropyridin-4-yl)-1H-pyrrolo[2,3-b]pyridin-6-yl)cyclopropanecarboxamide]
20 to 200	O=C(Nc1cc(C2=CCN(C(=O)c3ccoc3)CC2)c2cc[nH]c2n1)C1CC1 [Example 278, N-(4-(1-(furan-3-carbonyl)-1,2,3,6-tetrahydropyridin-4-yl)-1H-pyrrolo[2,3-b]pyridin-6-yl)cyclopropanecarboxamide]
20 to 200	O=C(Nc1cc(C2=CCN(C(=O)c3ccc(F)cc3)CC2)c2cc[nH]c2n1)C1CC1 [Example 279, N-(4-(1-(4-fluorobenzoyl)-1,2,3,6-tetrahydropyridin-4-yl)-1H-pyrrolo[2,3-b]pyridin-6-yl)cyclopropanecarboxamide]
> 200	CN1CCC(C(=O)N2CC=C(c3cc(NC(=O)C4CC4)nc4[nH]ccc34)CC2)C1 (centres unmarked) [Example 280, N-(4-(1-(1-methylpyrrolidine-3-carbonyl)-1,2,3,6-tetrahydropyridin-4-yl)-1H-pyrrolo[2,3-b]pyridin-6-yl)cyclopropanecarboxamide]
> 200	CN(C)CC(=O)N1CC=C(c2cc(NC(=O)C3CC3)nc3[nH]ccc23)CC1 [Example 281, N-(4-(1-(dimethylglycyl)-1,2,3,6-tetrahydropyridin-4-yl)-1H-pyrrolo[2,3-b]pyridin-6-yl)cyclopropanecarboxamide]
20 to 200	O=C(Nc1cc(C2=CCN(C(=O)C3CC3C(F)(F)F)CC2)c2cc[nH]c2n1)C1CC1 (centres unmarked) [Example 282, N-(4-(1-(2-(trifluoromethyl)cyclopropane-1-carbonyl)-1,2,3,6-tetrahydropyridin-4-yl)-1H-pyrrolo[2,3-b]pyridin-6-yl)cyclopropanecarboxamide]
< 20	CC1CN(C(=O)CC#N)CC=C1c1cc(NC(=O)C2CC2)nc2[nH]ccc12 (centres unmarked) [Example 283, N-(4-(1-(2-cyanoacetyl)-3-methyl-1,2,3,6-tetrahydropyridin-4-yl)-1H-pyrrolo[2,3-b]pyridin-6-yl)cyclopropanecarboxamide]
< 20	CC1CN(C(=O)CCC#N)CC=C1c1cc(NC(=O)C2CC2)nc2[nH]ccc12 (centres unmarked) [Example 284, N-(4-(1-(3-cyanopropanoyl)-3-methyl-1,2,3,6-tetrahydropyridin-4-yl)-1H-pyrrolo[2,3-b]pyridin-6-yl)cyclopropanecarboxamide]
20 to 200	CC1CN(C(=O)CCCC#N)CC=C1c1cc(NC(=O)C2CC2)nc2[nH]ccc12 (centres unmarked) [Example 285, N-(4-(1-(4-cyanobutanoyl)-3-methyl-1,2,3,6-tetrahydropyridin-4-yl)-1H-pyrrolo[2,3-b]pyridin-6-yl)cyclopropanecarboxamide]
20 to 200	O=C(Nc1cc(C2=CCN(C(=O)c3cnon3)CC2)c2cc[nH]c2n1)C1CC1 [Example 286, N-(4-(1-(1,2,5-oxadiazole-3-carbonyl)-1,2,3,6-tetrahydropyridin-4-yl)-1H-pyrrolo[2,3-b]pyridin-6-yl)cyclopropanecarboxamide]
20 to 200	O=C(Nc1cc(C2=CCN(C(=O)c3cnoc3)CC2)c2cc[nH]c2n1)C1CC1 [Example 287, N-(4-(1-(isoxazole-4-carbonyl)-1,2,3,6-tetrahydropyridin-4-yl)-1H-pyrrolo[2,3-b]pyridin-6-yl)cyclopropanecarboxamide]
20 to 200	O=C(Nc1cc(C2=CCN(C(=O)c3ccno3)CC2)c2cc[nH]c2n1)C1CC1 [Example 288, N-(4-(1-(isoxazole-5-carbonyl)-1,2,3,6-tetrahydropyridin-4-yl)-1H-pyrrolo[2,3-b]pyridin-6-yl)cyclopropanecarboxamide]
> 200	Cc1c(NC(=O)C2CC2)nc2[nH]ccc2c1C1=CCN(C(=O)CC#N)CC1 [Example 289, N-(4-(1-(2-cyanoacetyl)-1,2,3,6-tetrahydropyridin-4-yl)-5-methyl-1H-pyrrolo[2,3-b]pyridin-6-yl)cyclopropanecarboxamide]

IC50 [nM]	SMILES
> 200	Cc1c(NC(=O)C2CC2)nc2[nH]ccc2c1C1=CCN(C(=O)CC(F)(F)F)CC1 [Example 290, N-(5-methyl-4-(1-(3,3,3-trifluoropropanoyl)-1,2,3,6-tetrahydropyridin-4-yl)-1H-pyrrolo[2,3-b]pyridin-6-yl)cyclopropanecarboxamide]
> 200	O=C(Nc1cc(C2=CCN(C(=O)c3cscn3)CC2)c2cc[nH]c2n1)C1CC1 [Example 291, N-(4-(1-(thiazole-4-carbonyl)-1,2,3,6-tetrahydropyridin-4-yl)-1H-pyrrolo[2,3-b]pyridin-6-yl)cyclopropanecarboxamide]
< 20	O=C(Nc1cc(C2=CCN(C(=O)c3cnsc3)CC2)c2cc[nH]c2n1)C1CC1 [Example 292, N-(4-(1-(isothiazole-4-carbonyl)-1,2,3,6-tetrahydropyridin-4-yl)-1H-pyrrolo[2,3-b]pyridin-6-yl)cyclopropanecarboxamide]
20 to 200	N#Cc1ccc(C(=O)N2CC=C(c3cc(NC(=O)C4CC4)nc4[nH]ccc34)CC2)cc1 [Example 293, N-(4-(1-(4-cyanobenzoyl)-1,2,3,6-tetrahydropyridin-4-yl)-1H-pyrrolo[2,3-b]pyridin-6-yl)cyclopropanecarboxamide]
< 20	CCC1CN(C(=O)CC#N)CC=C1c1cc(NC(=O)C2CC2)nc2[nH]ccc12 (centres unmarked) [Example 294, N-(4-(1-(2-cyanoacetyl)-3-ethyl-1,2,3,6-tetrahydropyridin-4-yl)-1H-pyrrolo[2,3-b]pyridin-6-yl)cyclopropanecarboxamide]
< 20	CCC1CN(C(=O)CCC#N)CC=C1c1cc(NC(=O)C2CC2)nc2[nH]ccc12 (centres unmarked) [Example 295, N-(4-(1-(3-cyanopropanoyl)-3-ethyl-1,2,3,6-tetrahydropyridin-4-yl)-1H-pyrrolo[2,3-b]pyridin-6-yl)cyclopropanecarboxamide]
20 to 200	CC1=C(c2cc(NC(=O)C3CC3)nc3[nH]ccc23)CCN(C(=O)CC#N)C1 [Example 296, N-(4-(1-(2-cyanoacetyl)-5-methyl-1,2,3,6-tetrahydropyridin-4-yl)-1H-pyrrolo[2,3-b]pyridin-6-yl)cyclopropanecarboxamide]
20 to 200	O=C(Nc1cc(C2=CCN(C(=O)CCl)CC2)c2cc[nH]c2n1)C1CC1 [Example 298, N-(4-(1-(2-chloroacetyl)-1,2,3,6-tetrahydropyridin-4-yl)-1H-pyrrolo[2,3-b]pyridin-6-yl)cyclopropanecarboxamide]
20 to 200	CC1(C)CN(C(=O)CC#N)CC=C1c1cc(NC(=O)C2CC2)nc2[nH]ccc12 [Example 299, N-(4-(1-(2-cyanoacetyl)-3,3-dimethyl-1,2,3,6-tetrahydropyridin-4-yl)-1H-pyrrolo[2,3-b]pyridin-6-yl)cyclopropanecarboxamide]
20 to 200	CC1(C)CN(C(=O)CCC#N)CC=C1c1cc(NC(=O)C2CC2)nc2[nH]ccc12 [Example 300, N-(4-(1-(3-cyanopropanoyl)-3,3-dimethyl-1,2,3,6-tetrahydropyridin-4-yl)-1H-pyrrolo[2,3-b]pyridin-6-yl)cyclopropanecarboxamide]
> 200	N#CCC(=O)N1CC=C(c2cc(NC(=O)c3ccco3)nc3[nH]ccc23)CC1 [Example 301, N-(4-(1-(2-cyanoacetyl)-1,2,3,6-tetrahydropyridin-4-yl)-1H-pyrrolo[2,3-b]pyridin-6-yl)furan-2-carboxamide]
20 to 200	N#CCCC(=O)N1CC=C(c2cc(NC(=O)C3CC3)nc3[nH]ccc23)C2(CC2)C1 [Example 302, N-(4-(5-(3-cyanopropanoyl)-5-azaspiro[2.5]oct-7-en-8-yl)-1H-pyrrolo[2,3-b]pyridin-6-yl)cyclopropanecarboxamide]
< 20	N#CCC(=O)N1CC=C(c2cc(NC(=O)C3CC3)nc3[nH]ccc23)C2(CC2)C1 [Example 303, N-(4-(5-(2-cyanoacetyl)-5-azaspiro[2.5]oct-7-en-8-yl)-1H-pyrrolo[2,3-b]pyridin-6-yl)cyclopropanecarboxamide]
< 20	C[C@@H]1CN(C(=O)CC#N)CC=C1c1cc(NC(=O)C2CC2)nc2[nH]ccc12 [Example 304, (S)—N-(4-(1-(2-cyanoacetyl)-3-methyl-1,2,3,6-tetrahydropyridin-4-yl)-1H-pyrrolo[2,3-b]pyridin-6-yl)cyclopropanecarboxamide]
20 to 200	Cc1ncc(C(=O)N2CC=C(c3cc(NC(=O)C4CC4)nc4[nH]ccc34)C(C)C2)s1 (centres unmarked) [Example 306, N-(4-(3-methyl-1-(2-methylthiazole-5-carbonyl)-1,2,3,6-tetrahydropyridin-4-yl)-1H-pyrrolo[2,3-b]pyridin-6-yl)cyclopropanecarboxamide]
> 200	Cc1nc(C)c(C(=O)N2CC=C(c3cc(NC(=O)C4CC4)nc4[nH]ccc34)C(C)C2)s1 (centres unmarked) [Example 307, N-(4-(1-(2,4-dimethylthiazole-5-carbonyl)-3-methyl-1,2,3,6-tetrahydropyridin-4-yl)-1H-pyrrolo[2,3-b]pyridin-6-yl)cyclopropanecarboxamide]
